Laboratory results published in patent publication US20170233413A1, “SUBSTITUTED ANNULATED PYRIMIDINES AND USE THEREOF” (Bayer Pharma Aktiengesellschaft, priority 2014, published 2017).

How the values were obtained:
[1] = target: T1, human phosphodiesterase 5 (PDE 5) (Homo sapiens, UniProt O76074); experiment: Inhibition of human phosphodiesterase 5 (PDE 5); type: biochemical; conditions: PDE 5 preparation from human platelets; in some cases means of individual determinations
T1 construct: PDE 5 preparations are obtained from human platelets by disruption; from tissue; host or cells: human platelets
In short: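 IC50 comes from percent inhibition over a 1:3 series with final levels of 4 to 0.0018 μM. Reaction: tritiated cGMP tracer (0.025 μCi) with platelet-derived, Mono Q-purified enzyme, 1 h at room temperature in Tris pH 7.5, under 70% turnover. Read-out by scintillation proximity beads.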

[2] = target: T2, recombinant guanylate cyclase reporter cell line (Rattus norvegicus, UniProt P19686+P20595); experiment: Effect on a recombinant guanylate cyclase reporter cell line; type: cell-based; conditions: MEC = minimum effective concentration; in some cases means of individual determinations
T2 construct: expressed in transfected cells
T2 sequence (P19686 1-690): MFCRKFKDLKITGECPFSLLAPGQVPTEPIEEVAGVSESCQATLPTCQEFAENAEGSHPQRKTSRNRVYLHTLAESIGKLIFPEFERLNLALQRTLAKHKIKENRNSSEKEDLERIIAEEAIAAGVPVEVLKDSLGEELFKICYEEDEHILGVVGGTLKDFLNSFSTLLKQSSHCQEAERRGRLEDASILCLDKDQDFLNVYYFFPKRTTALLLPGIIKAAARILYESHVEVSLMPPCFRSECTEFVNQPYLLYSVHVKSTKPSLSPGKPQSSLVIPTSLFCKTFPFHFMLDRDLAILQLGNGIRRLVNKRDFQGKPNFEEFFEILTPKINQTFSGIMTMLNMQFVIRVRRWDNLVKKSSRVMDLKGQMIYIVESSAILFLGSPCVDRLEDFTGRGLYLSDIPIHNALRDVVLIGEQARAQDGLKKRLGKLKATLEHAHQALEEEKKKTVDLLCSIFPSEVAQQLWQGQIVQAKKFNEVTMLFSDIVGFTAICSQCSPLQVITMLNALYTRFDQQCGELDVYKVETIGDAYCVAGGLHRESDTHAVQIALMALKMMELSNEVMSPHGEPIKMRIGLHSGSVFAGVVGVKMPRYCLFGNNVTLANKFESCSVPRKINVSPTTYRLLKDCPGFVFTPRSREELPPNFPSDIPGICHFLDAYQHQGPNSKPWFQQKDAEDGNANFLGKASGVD
T2 sequence (P20595 1-619): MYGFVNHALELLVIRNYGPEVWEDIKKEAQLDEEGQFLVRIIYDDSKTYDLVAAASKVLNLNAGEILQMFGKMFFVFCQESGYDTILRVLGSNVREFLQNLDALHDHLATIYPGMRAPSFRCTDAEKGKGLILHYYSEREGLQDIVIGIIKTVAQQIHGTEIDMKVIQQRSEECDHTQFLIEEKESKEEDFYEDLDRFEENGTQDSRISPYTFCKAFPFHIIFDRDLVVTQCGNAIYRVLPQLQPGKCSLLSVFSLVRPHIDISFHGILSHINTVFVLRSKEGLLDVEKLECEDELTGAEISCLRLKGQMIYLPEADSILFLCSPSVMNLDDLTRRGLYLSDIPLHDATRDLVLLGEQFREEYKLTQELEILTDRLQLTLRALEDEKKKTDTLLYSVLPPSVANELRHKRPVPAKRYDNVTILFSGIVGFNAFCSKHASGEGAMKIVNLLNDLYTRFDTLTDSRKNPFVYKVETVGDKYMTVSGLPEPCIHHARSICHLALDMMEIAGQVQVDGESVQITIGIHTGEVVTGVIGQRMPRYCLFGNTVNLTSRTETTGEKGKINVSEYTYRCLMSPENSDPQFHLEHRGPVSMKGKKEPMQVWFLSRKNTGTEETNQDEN
In short: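 Values are reported as MEC, sometimes averaged over individual determinations. The test system is a reporter cell line expressing recombinant rat guanylate cyclase.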

IC50 [1] | MEC [2] | Compound
13 nM | 0.1 µM | CC(CC1CC1)NC(=O)c1nc(-c2nn(Cc3ccccc3F)c3ncccc23)nc2c1C(C)(C)C(=O)N2 (racemic) [Example 68, rac-N-(1-cyclopropylpropan-2-yl)-2-[1-(2-fluorobenzyl)-1H-pyrazolo[3,4-b]pyridin-3-yl]-5,5-dimethyl-6-oxo-6,7-dihydro-5H-pyrrolo[2,3-d]pyrimidine-4-carboxamide]
33 nM | 0.3 µM | CC(C)CCNC(=O)c1nc(-c2nn(Cc3ccccc3F)c3ncccc23)nc2c1C(C)(C)C(=O)N2 [Example 132, 2-[1-(2-fluorobenzyl)-1H-pyrazolo[3,4-b]pyridin-3-yl]-5,5-dimethyl-N-(3-methylbutyl)-6-oxo-6,7-dihydro-5H-pyrrolo[2,3-d]pyrimidine-4-carboxamide]
25 nM | 0.1 µM | CC1(C)C(=O)Nc2nc(-c3nn(Cc4ccccc4F)c4ncccc34)nc(C(=O)NCc3ccccn3)c21 [Example 117, 2-[1-(2-fluorobenzyl)-1H-pyrazolo[3,4-b]pyridin-3-yl]-5,5-dimethyl-6-oxo-N-(pyridin-2-ylmethyl)-6,7-dihydro-5H-pyrrolo[2,3-d]pyrimidine-4-carboxamide]
330 nM | 1 µM | CN(C)CCNC(=O)c1nc(-c2nn(Cc3ccccc3F)c3ncccc23)nc2c1C(C)(C)C(=O)N2 [Example 128, N-[2-(dimethylamino)ethyl]-2-[1-(2-fluorobenzyl)-1H-pyrazolo[3,4-b]pyridin-3-yl]-5,5-dimethyl-6-oxo-6,7-dihydro-5H-pyrrolo[2,3-d]pyrimidine-4-carboxamide]
4.3 nM | 0.3 µM | CC1(C)C(=O)Nc2nc(-c3nn(Cc4ccccc4F)c4ncccc34)nc(C(=O)Nc3cn[nH]c3)c21 [Example 100, 2-[1-(2-fluorobenzyl)-1H-pyrazolo[3,4-b]pyridin-3-yl]-5,5-dimethyl-6-oxo-N-(1H-pyrazol-4-yl)-6,7-dihydro-5H-pyrrolo[2,3-d]pyrimidine-4-carboxamide]
19 nM | 0.1 µM | CC1(C)C(=O)Nc2nc(-c3nn(Cc4ccccc4F)c4ncc(F)cc34)nc(C(=O)NCC(F)(F)F)c21 [Example 50]
130 nM | 0.065 µM | Cc1nc2c(cc1F)c(-c1nc3c(c(C(N)=O)n1)C(C)(C(F)(F)F)C(=O)N3)nn2Cc1ccccc1F (racemic) [Example 12, rac-2-[5-fluoro-1-(2-fluorobenzyl)-6-methyl-1H-pyrazolo[3,4-b]pyridin-3-yl]-5-methyl-6-oxo-5-(trifluoromethyl)-6,7-dihydro-5H-pyrrolo[2,3-d]pyrimidine-4-carboxamide]
38 nM | 0.1 µM | CC(C)=CCNC(=O)c1nc(-c2nn(Cc3ccccc3F)c3ncccc23)nc2c1C(C)(C)C(=O)N2 [Example 85, 2-[1-(2-fluorobenzyl)-1H-pyrazolo[3,4-b]pyridin-3-yl]-5,5-dimethyl-N-(3-methylbut-2-en-1-yl)-6-oxo-6,7-dihydro-5H-pyrrolo[2,3-d]pyrimidine-4-carboxamide]
12 nM | 0.3 µM | CC(C)(O)CNC(=O)c1nc(-c2nn(Cc3ccccc3F)c3ncc(F)cc23)nc2c1C(C)(C)C(=O)N2 [Example 29]
100 nM | 1 µM | Cc1nc2c(cc1F)c(-c1nc3c(c(C(=O)NCC(C)(N)CC(F)F)n1)C(C)(C)C(=O)N3)nn2Cc1cccc(F)c1F (single isomer, unassigned) [Example 57]
1100 nM | 0.1 µM | CC1(C)C(=O)Nc2nc(-c3nn(Cc4ccccc4F)c4cc(Cl)ccc34)nc(C(=O)N3CCCC3)c21 [Example 48]
620 nM | 1 µM | CC(CNC(=O)c1nc(-c2nn(Cc3ccccc3F)c3ncccc23)nc2c1C(C)(C)C(=O)N2)N(C)C (racemic) [Example 105, rac-N-[2-(dimethylamino)propyl]-2-[1-(2-fluorobenzyl)-1H-pyrazolo[3,4-b]pyridin-3-yl]-5,5-dimethyl-6-oxo-6,7-dihydro-5H-pyrrolo[2,3-d]pyrimidine-4-carboxamide]
110 nM | 0.3 µM | Cc1nc2c(cc1F)c(-c1nc3c(c(C(N)=O)n1)C(C)(C(F)(F)F)C(=O)N3)nn2Cc1cccc(F)c1F (single isomer, unassigned; ent-2) [Example 10, ent-2-[1-(2,3-Difluorobenzyl)-5-fluoro-6-methyl-1H-pyrazolo[3,4-b]pyridin-3-yl]-5-methyl-6-oxo-5-(trifluoromethyl)-6,7-dihydro-5H-pyrrolo[2,3-d]pyrimidine-4-carboxamide (enantiomer A)]
23 nM | 0.1 µM | CC1(C)C(=O)Nc2nc(-c3nn(Cc4ccccc4F)c4ncccc34)nc(C(=O)NCC3CC3)c21 [Example 84, N-(cyclopropylmethyl)-2-[1-(2-fluorobenzyl)-1H-pyrazolo[3,4-b]pyridin-3-yl]-5,5-dimethyl-6-oxo-6,7-dihydro-5H-pyrrolo[2,3-d]pyrimidine-4-carboxamide]
710 nM | 0.01 µM | CN(CC1CC1)C(=O)c1nc(-c2nn(Cc3ccccc3F)c3ncccc23)nc2c1C(C)(C)C(=O)N2 [Example 111, N-(cyclopropylmethyl)-2-[1-(2-fluorobenzyl)-1H-pyrazolo[3,4-b]pyridin-3-yl]-N,5,5-trimethyl-6-oxo-6,7-dihydro-5H-pyrrolo[2,3-d]pyrimidine-4-carboxamide]
170 nM | 2 µM | CC1(C(F)(F)F)C(=O)Nc2nc(-c3nn(Cc4ncccc4F)c4ncc(F)cc34)nc(C(N)=O)c21 (single isomer, unassigned; ent-2) [Example 22, ent-2-{5-Fluoro-1-[(3-fluoropyridin-2-yl)methyl]-1H-pyrazolo[3,4-b]pyridin-3-yl}-5-methyl-6-oxo-5-(trifluoromethyl)-6,7-dihydro-5H-pyrrolo[2,3-d]pyrimidine-4-carboxamide (enantiomer A)]
600 nM | 0.1 µM | Cc1nc2c(cc1F)c(-c1nc3c(c(C(N)=O)n1)C(C)(C(F)(F)F)C(=O)N3)nn2Cc1ccccc1F (single isomer, unassigned; ent-2) [Example 13, ent-2-[5-fluoro-1-(2-fluorobenzyl)-6-methyl-1H-pyrazolo[3,4-b]pyridin-3-yl]-5-methyl-6-oxo-5-(trifluoromethyl)-6,7-dihydro-5H-pyrrolo[2,3-d]pyrimidine-4-carboxamide (enantiomer A)]
16 nM | 0.3 µM | CC1(C)C(=O)Nc2nc(-c3nn(Cc4ccccc4F)c4ncccc34)nc(C(=O)Nc3nnc[nH]3)c21 [Example 94, 2-[1-(2-fluorobenzyl)-1H-pyrazolo[3,4-b]pyridin-3-yl]-5,5-dimethyl-6-oxo-N-(4H-1,2,4-triazol-3-yl)-6,7-dihydro-5H-pyrrolo[2,3-d]pyrimidine-4-carboxamide]
30 nM | 1 µM | CC(C)C(C)NC(=O)c1nc(-c2nn(Cc3ccccc3F)c3ncccc23)nc2c1C(C)(C)C(=O)N2 (racemic) [Example 133, rac-2-[1-(2-fluorobenzyl)-1H-pyrazolo[3,4-b]pyridin-3-yl]-5,5-dimethyl-N-(3-methylbutan-2-yl)-6-oxo-6,7-dihydro-5H-pyrrolo[2,3-d]pyrimidine-4-carboxamide]
1300 nM | 10 µM | CN(CCO)C(=O)c1nc(-c2nn(Cc3ncccc3F)c3ncc(F)cc23)nc2c1C(C)(C)C(=O)N2 [Example 35]
